In test [1] the target is T1, HCV NS5B RdRp (Hepatitis C virus genotype 1b, UniProt Q9WMX2).
T1 construct: The protein was expressed with an 18 amino acid C-terminal truncation to enhance the solubility; made in house; host or cells: E. coli BL21(DE3)
The experiment in a line: HCV NS5B RdRp enzyme inhibition assay. In kind it is biochemical. As for the experimental part:
HCV NS5B RdRp cloning, expression, and purification. The cDNA encoding the NS5B protein of HCV, genotype 1b, was cloned into the pET21a expression vector. The protein was expressed with an 18 amino acid C-terminal truncation to enhance the solubility. The E. coli competent cell line BL21(DE3) was used for expression of the protein. Cultures were grown at 37° C. for ˜4 hours until the cultures reached an optical density of 2.0 at 600 nm. The cultures were cooled to 20° C. and induced with 1 mM IPTG. Fresh ampicillin was added to a final concentration of 50 ug/ml and the cells were grown overnight at 20° C.
Cell pellets (3L) were lysed for purification to yield 15–24 mgs of purified NS5B. The lysis buffer consisted of 20 mM Tris-HCl, pH 7.4, 500 mM NaCl, 0.5% triton X-100, 1 mM DTT, 1 mM EDTA, 20% glycerol, 0.5 mg/ml lysozyme, 10 mM MgCl2, 15 ug/ml deoxyribonuclease I, and Complete TM protease inhibitor tablets (Roche). After addition of the lysis buffer, frozen cell pellets were resuspended using a tissue homogenizer. To reduce the viscosity of the sample, aliquots of the lysate were sonicated on ice using a microtip attached to a Branson sonicator. The sonicated lysate was centrifuged at 100,000×g for 1 hr at 4° C. and filtered through a 0.2 μm filter unit (Corning).
The protein was purified using three sequential chromatography steps: Heparin sepharose CL-6B, polyU sepharose 4B, and Hitrap SP sepharose (Pharmacia). The chromatography buffers were identical to the lysis buffer but contained no lysozyme, deoxyribonuclease I, MgCl2 or protease inhibitor and the NaCl concentration of the buffer was adjusted according to the requirements for charging the protein onto the column. Each column was eluted with a NaCl gradient which varied in length from 5–50 column volumes depending on the column type. After the final chromatography step, the resulting purity of the enzyme is >90% based on SDS-PAGE analysis. The enzyme was aliquoted and stored at −80° C.
HCV NS5B RdRp enzyme assay. HCV RdRp genotype 1b assays were run in assay buffer composed of 20 mM Tris-HCl, pH 7.5, 2.5 mM KCl, 5 mM MgCl2, 1 mM DTT, 1.6 U RNAse inhibitor (Promega N2515), in 96 well plates (Falcon 3918). All compounds were serially diluted in DMSO and diluted further in assay buffer such that the final concentration of DMSO in the assay was 2%. Compounds were serially diluted (3-fold each time) for a 7 point inhibition analysis. HCV RdRp genotype 1b enzyme was used at a final concentration of 28 nM. A polyA template was used at 28 nM, and the oligo-dT12-18 primer was used at 840 nM final concentration. Preannealed primer and template were obtained commercially (Amersham 27-787802). ^3H-UTP was used at 0.125 μCi (1 μM total UTP). Reaction was initiated by the addition of enzyme. Reactions were incubated at 30° C. for 45 min, and stopped by adding 30 ul of 20% ice cold TCA. Plates were chilled for 30 minutes and harvested onto Unifilter-96, GF/B plates (Packard, 6005177) using a Packard FilterMate Cell Harvester. The harvest plates were prewashed 3 times, 200 ul/well, with 100 mM NaPPi. Harvested filters were washed 30 times, 200 ul/well, with distilled water followed by ethanol. Filter plates were dried, and 30 ul/well microscint-20 was added. Plates were read on a Packard Top Count NXT.
The IC50 values for compounds were determined using […] different [I], combined with 7 nM enzyme, 800 ng of the template-primer polyC/oligoG12 (1:5 molar ratio), and 0.7 uM of ^3H GTP containing 1 uCi. The observed fractional activity (fa=vi/vo) was used in the equation IC50=[I]/(1/fa-1) to determine a single point IC50 value. Typically, the single point IC50 values derived from [I] that produced fractional activities in the range of 0.1 to 0.8 relative to the uninhibited control were averaged to calculate the IC50 value for each compound.

Test [2] deals with HCV. The conditions noted are these: combination therapy, HCV patients (Poynard et al. Lancet 1998); cited from earlier work.

The source of these data is patent US7112601B2, “Cycloalkyl heterocycles for treating hepatitis C virus” (priority 2003, dated 2006).

The IC50 is the concentration that gives 50% inhibition. A low value points to higher potency.

T1 sequence (Q9WMX2 2420-2992): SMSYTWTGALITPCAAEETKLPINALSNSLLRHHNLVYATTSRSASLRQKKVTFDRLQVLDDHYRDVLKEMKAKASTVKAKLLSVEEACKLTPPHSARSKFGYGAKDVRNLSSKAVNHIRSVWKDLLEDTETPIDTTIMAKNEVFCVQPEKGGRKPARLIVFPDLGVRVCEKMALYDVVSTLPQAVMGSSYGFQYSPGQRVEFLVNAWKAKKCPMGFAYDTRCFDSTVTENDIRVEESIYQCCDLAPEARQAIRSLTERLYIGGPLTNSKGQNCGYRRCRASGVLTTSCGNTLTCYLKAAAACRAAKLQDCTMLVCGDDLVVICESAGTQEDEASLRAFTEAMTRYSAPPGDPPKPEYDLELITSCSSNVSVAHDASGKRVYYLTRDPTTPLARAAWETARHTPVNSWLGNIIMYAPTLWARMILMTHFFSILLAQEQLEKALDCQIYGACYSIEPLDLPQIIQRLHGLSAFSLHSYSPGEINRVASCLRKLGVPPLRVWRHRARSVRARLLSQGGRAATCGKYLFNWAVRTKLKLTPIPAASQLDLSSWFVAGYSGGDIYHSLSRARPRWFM

Regarding `CNC(=O)c1ccc(-c2ccc(Cl)cc2)c(COc2ccc(-c3nc(/C=C(\C)C(=O)O)cn3C3CCCCC3)cc2)c1` [Example 54, (2E)-3-(2-{4-[(4′-chloro-4-N-methylcarbamoyl-1,1′-biphenyl-2-yl)methoxy]phenyl}-1-cyclohexyl-1H-imidazol-4-yl)-2-methyl-2-propenoic acid], half-maximal inhibition in test [1] (IC50) was put at 1600 nM.

Take alpha-interferon and ribavirin: in test [2], the sustained efficacy is listed as 40 % of patients.
